In ChEMBL document CHEMBL1140218, “Novel bis- and tris-1,2,4-trioxanes: synthesis and antimalarial activity against multidrug-resistant Plasmodium yoelii in Swiss mice” (J Med Chem, 2008):
Active and inactive are the calls of the source. The calls are words filed in the database; no cut-off is given here.

Assays:
[1] = test system: Plasmodium yoelii nigeriensis; assay: Antimalarial activity as cures against multidrug-resistant Plasmodium yoelii nigeriensis in Swiss mice (Mus musculus) at 96 mg/kg peroral dose for 4 days; type: functional, organism-based; set-up: dose 96 mg/kg
[2] = test system: Plasmodium yoelii nigeriensis; assay: Antimalarial activity as reduced parasitaemia against multidrug-resistant Plasmodium yoelii nigeriensis in Swiss mice (Mus musculus) at 96 mg/kg peroral dose for 4 days; type: functional; set-up: scale not given: the % may be the effect or the level left; settings: route oral
[3] = test system: Plasmodium yoelii nigeriensis; assay: Antimalarial activity as survival time against multidrug-resistant Plasmodium yoelii nigeriensis in Swiss mice (Mus musculus) at 96 mg/kg peroral dose for 4 days; type: functional; settings: route oral
[4] = test system: Plasmodium yoelii nigeriensis; assay: Antimalarial activity as survival time against multidrug-resistant Plasmodium yoelii nigeriensis in Swiss mice (Mus musculus) at 48 mg/kg peroral dose for 4 days; type: functional; settings: route oral
[5] = test system: Plasmodium yoelii nigeriensis; assay: Antimalarial activity as reduced parasitaemia against multidrug-resistant Plasmodium yoelii nigeriensis in Swiss mice (Mus musculus) at 48 mg/kg peroral dose for 4 days; type: functional; set-up: scale not given: the % may be the effect or the level left; settings: route oral
[6] = test system: Plasmodium yoelii nigeriensis; assay: Antimalarial activity as cures against multidrug-resistant Plasmodium yoelii nigeriensis infected Swiss mice (Mus musculus) at 48 mg/kg peroral dose over 4 days; type: functional, organism-based; set-up: dose 48 mg/kg
[7] = test system: Plasmodium yoelii nigeriensis; assay: Antimalarial activity as survival time against multidrug-resistant Plasmodium yoelii nigeriensis in Swiss mice (Mus musculus) at 24 mg/kg peroral dose for 4 days; type: functional; settings: route oral
[8] = test system: Plasmodium yoelii nigeriensis; assay: Antimalarial activity as reduced parasitaemia against multidrug-resistant Plasmodium yoelii nigeriensis in Swiss mice (Mus musculus) at 24 mg/kg peroral dose for 4 days; type: functional; set-up: scale not given: the % may be the effect or the level left; settings: route oral
[9] = Solubility in groundnut oil; type: physicochemical

C=C(c1ccc(Oc2ccc(Oc3ccc(C(=C)C4COC5(CCCCC5)OO4)cc3)cc2)cc1)C1COC2(CCCCC2)OO1 (centres undefined)
Activity [1]: inactive | Activity [2]: 47.33% | Survival [3]: 8.6 days

C=C(c1ccc(OCCCOc2ccc(C(=C)C3COC4(CCCC4)OO3)cc2)cc1)C1COC2(CCCC2)OO1 (centres undefined)
Activity [1]: Active | Activity [2]: 100% | Survival [4]: 12.8 days | Survival [3]: >28 days | Activity [5]: 100% | Activity [6]: inactive

C=C(c1ccc(OCCCOc2ccc(C(=C)C3COC4(CCCCC4)OO3)cc2)cc1)C1COC2(CCCCC2)OO1 (centres undefined)
Activity [1]: Active | Activity [2]: 100% | Survival [4]: 10.8 days | Survival [3]: >28 days | Activity [5]: 87.47% | Activity [6]: inactive

C=C(c1ccc(Oc2ccc(Oc3ccc(C(=C)C4COC5(OO4)C4CC6CC(C4)CC5C6)cc3)cc2)cc1)C1COC2(OO1)C1CC3CC(C1)CC2C3 (centres undefined)
Activity [1]: inactive | Activity [2]: 38.46% | Survival [3]: 9 days

C=C(c1ccc(Oc2ccc(C(=C)C3COC4(OO3)C3CC5CC(C3)CC4C5)cc2)cc1)C1COC2(OO1)C1CC3CC(C1)CC2C3 (centres undefined)
Activity [1]: inactive | Activity [2]: 36.74% | Survival [3]: 7.2 days

C=C(c1ccc(Oc2ccc(C(=C)C3COC4(CCCCC4)OO3)cc2)cc1)C1COC2(CCCCC2)OO1 (centres undefined)
Activity [1]: Active | Activity [2]: 100% | Survival [4]: 11.8 days | Survival [3]: >28 days | Activity [5]: 100% | Activity [6]: inactive

C=C(c1ccc(OCCOc2ccc(C(=C)C3COC4(CCCC4)OO3)cc2)cc1)C1COC2(CCCC2)OO1 (centres undefined)
Activity [1]: Active | Activity [2]: 100% | Survival [4]: 12.2 days | Survival [3]: >28 days | Activity [5]: 87.76% | Activity [6]: inactive

C=C(c1ccc(OCC(O)COc2ccc(C(=C)C3COC4(CCCC4)OO3)cc2)cc1)C1COC2(CCCC2)OO1 (centres undefined)
Activity [1]: Active | Activity [2]: 100% | Survival [4]: 9.6 days | Survival [3]: >28 days | Activity [5]: 74.32% | Activity [6]: inactive

C=C(c1ccc(Oc2cccc(C(=C)C3COC4(OO3)C3CC5CC(C3)CC4C5)c2)cc1)C1COC2(OO1)C1CC3CC(C1)CC2C3 (centres undefined)
Activity [1]: inactive | Activity [2]: 7.16% | Survival [3]: 7.6 days

C=C(c1ccc(OCCOc2ccc(C(=C)C3COC4(CCCCC4)OO3)cc2)cc1)C1COC2(CCCCC2)OO1 (centres undefined)
Activity [1]: inactive | Activity [2]: 86.29% | Survival [3]: 10.6 days

C=C(c1ccc(OCCOc2ccc(C(=C)C3COC4(OO3)C3CC5CC(C3)CC4C5)cc2)cc1)C1COC2(OO1)C1CC3CC(C1)CC2C3 (centres undefined)
Activity [1]: inactive | Activity [2]: 66.39% | Survival [3]: 7.6 days

C=C(c1ccc(Oc2ccc3ccc(Oc4ccc(C(=C)C5COC6(CCCC6)OO5)cc4)cc3c2)cc1)C1COC2(CCCC2)OO1 (centres undefined)
Activity [1]: inactive | Activity [2]: 42.29% | Survival [3]: 7.8 days

C=C(c1ccc(Oc2ccc(C(=C)C3COC4(CCCC4)OO3)cc2)cc1)C1COC2(CCCC2)OO1 (centres undefined)
Activity [1]: Active | Activity [2]: 100% | Survival [4]: >28 days | Survival [7]: >21.2 days | Activity [8]: 100% | Survival [3]: >28 days | Activity [5]: 100% | Activity [6]: Active

C=C(c1ccc(Oc2cc(Oc3ccc(C(=C)C4COC5(OO4)C4CC6CC(C4)CC5C6)cc3)cc(Oc3ccc(C(=C)C4COC5(OO4)C4CC6CC(C4)CC5C6)cc3)c2)cc1)C1COC2(OO1)C1CC3CC(C1)CC2C3 (centres undefined)
Activity [1]: inactive | Activity [2]: 5.47% | Survival [3]: 7.4 days

C=C(c1ccc(OCC(O)COc2ccc(C(=C)C3COC4(CCCCC4)OO3)cc2)cc1)C1COC2(CCCCC2)OO1 (centres undefined)
Activity [1]: Active | Activity [2]: 100% | Survival [4]: 8 days | Survival [3]: >28 days | Activity [5]: 75.86% | Activity [6]: inactive

C=C(c1ccc(OCC(O)COc2ccc(C(=C)C3COC4(OO3)C3CC5CC(C3)CC4C5)cc2)cc1)C1COC2(OO1)C1CC3CC(C1)CC2C3 (centres undefined)
Activity [1]: inactive | Activity [2]: 26.76% | Survival [3]: 8.6 days

CCO[C@@H]1C[C@@H]2CC[C@@H](C)[C@@H]3CC[C@]4(C)OO[C@@]23[C@H](O1)O4
Activity [8]: 100% | Survival [3]: >28 days | Activity [5]: 100% | Activity [6]: Active

C=C(c1ccc(Oc2cccc3c(Oc4ccc(C(=C)C5COC6(CCCC6)OO5)cc4)cccc23)cc1)C1COC2(CCCC2)OO1 (centres undefined)
Activity [1]: inactive | Activity [2]: 40.05% | Survival [3]: 8.4 days

C=C(c1ccc(Oc2cccc(C(=C)C3COC4(CCCC4)OO3)c2)cc1)C1COC2(CCCC2)OO1 (centres undefined)
Activity [1]: Active | Activity [2]: 100% | Survival [4]: 12.2 days | Survival [3]: >28 days | Activity [5]: 100% | Activity [6]: inactive

C=C(c1ccc(Oc2ccc3ccc(Oc4ccc(C(=C)C5COC6(CCCCC6)OO5)cc4)cc3c2)cc1)C1COC2(CCCCC2)OO1 (centres undefined)
solubility [9]: Insoluble

C=C(c1ccc(Oc2cccc3c(Oc4ccc(C(=C)C5COC6(CCCCC6)OO5)cc4)cccc23)cc1)C1COC2(CCCCC2)OO1 (centres undefined)
Activity [1]: inactive | Activity [2]: 16.36% | Survival [3]: 8.2 days

C=C(c1ccc(Oc2cccc3c(Oc4ccc(C(=C)C5COC6(OO5)C5CC7CC(C5)CC6C7)cc4)cccc23)cc1)C1COC2(OO1)C1CC3CC(C1)CC2C3 (centres undefined)
Activity [1]: inactive | Activity [2]: 12.27% | Survival [3]: 7.4 days

C=C(c1ccc(OCCCOc2ccc(C(=C)C3COC4(OO3)C3CC5CC(C3)CC4C5)cc2)cc1)C1COC2(OO1)C1CC3CC(C1)CC2C3 (centres undefined)
Activity [1]: inactive | Activity [2]: 32.54% | Survival [3]: 7.4 days

C=C(c1ccc(Oc2cc(Oc3ccc(C(=C)C4COC5(CCCC5)OO4)cc3)cc(Oc3ccc(C(=C)C4COC5(CCCC5)OO4)cc3)c2)cc1)C1COC2(CCCC2)OO1 (centres undefined)
Activity [1]: inactive | Activity [2]: 3.22% | Survival [3]: 7.2 days

C=C(c1ccc(Oc2ccc3ccc(Oc4ccc(C(=C)C5COC6(OO5)C5CC7CC(C5)CC6C7)cc4)cc3c2)cc1)C1COC2(OO1)C1CC3CC(C1)CC2C3 (centres undefined)
Activity [1]: inactive | Activity [2]: 36.07% | Survival [3]: 7.4 days

C=C(c1ccc(Oc2cccc(C(=C)C3COC4(CCCCC4)OO3)c2)cc1)C1COC2(CCCCC2)OO1 (centres undefined)
Activity [1]: inactive | Activity [2]: 76.79% | Survival [3]: 10 days

C=C(c1ccc(Oc2cc(Oc3ccc(C(=C)C4COC5(CCCCC5)OO4)cc3)cc(Oc3ccc(C(=C)C4COC5(CCCCC5)OO4)cc3)c2)cc1)C1COC2(CCCCC2)OO1 (centres undefined)
Activity [1]: inactive | Activity [2]: 26.37% | Survival [3]: 8.4 days

C=C(c1ccc(Oc2ccc(Oc3ccc(C(=C)C4COC5(CCCC5)OO4)cc3)cc2)cc1)C1COC2(CCCC2)OO1 (centres undefined)
Activity [1]: inactive | Activity [2]: 50.83% | Survival [3]: 7.6 days
